# Measured values taken from ChEMBL document CHEMBL3507680, “University of Dundee, Gates Library screen for HepG2 cell viability”.
# Test: Human HepG2 cell viability assay in 384 well format
# Format: toxicity, cell-based
# Parameters: dose 125 nL, time 70.5 hour; cytotoxicity at 70.5 h: concentration not given beside the values
# Details: HepG2 cells, read-out: Inhibition
row,Compound,cytotoxicity at 70.5 h [%]
1,CCOc1ncccc1CNC(=O)c1cc(C)on1,-8.59
2,CC(=O)NCCNC(=O)c1cnc(-c2ccc(C)cc2C)s1,-6.99
3,O=C(c1cc2cc(F)ccc2[nH]1)N1CCC(Nc2ccc(F)cc2)CC1,-4.25
4,CCNC(=O)C(C)NC(=O)c1cnc(-c2ccc(C)cc2C)s1 (centres undefined),1.57
5,O=C(Cc1c[nH]c2ccccc12)N1CCC(Nc2cccnc2)CC1,-0.82
6,CCc1ccc(C(=O)N2CCN(c3nc(C)cc(OC)n3)CC2)o1,4.76
7,CNC(=O)c1ccc(CNC(=O)NCCN(C)C2CCCC2)cc1,-1.36
8,O=C(c1cc2ccccc2[nH]1)N1CCC(Nc2cccnn2)CC1,-6.88
9,O=C(c1cc2c(F)cccc2[nH]1)N1CCC(Nc2cccnn2)CC1,0.884
10,CN(c1cccnn1)C1CCN(C(=O)Cc2c[nH]c3ccccc23)CC1,-4.23
11,CN1CCOC(CNCc2csc(C3CCCCC3)n2)C1 (centres undefined),-13.3
12,CC(O)(CN1CCC(O)CC1)c1cccc(C(F)(F)F)c1 (centres undefined),-14.5
13,Cc1nn(C)c(N(C)C)c1CNC(C)COc1ccc(F)cc1F (centres undefined),-8.01
14,Cn1cnc2c1CCN(Cc1csc(C3CCCC3)n1)C2,-9.44
15,O=C(CCn1cncn1)N1CCCC1c1noc(C2CC2)n1 (centres undefined),-7.06
16,COCCOc1ncccc1C(=O)N1CCCC(n2ccnc2C)C1 (centres undefined),-13.5
17,O=C(NCCn1ccnc1)N1CCN(Cc2cccnc2)CC1,-5.29
18,CCCC(=O)NC(C)c1nnc2n1CCC2 (centres undefined),-15.3
19,CCOc1ncccc1CNC(=O)Nc1ccccc1,16.2
20,CCOc1ncccc1CNC(=O)Nc1ccc(OC)c(OC)c1,-5.39
21,CN(C)c1ncccc1CNS(=O)(=O)c1cc(F)cc(F)c1,-6.43

row,Compound,cytotoxicity at 70.5 h [%]
1,Cn1ccc(C(=O)NCc2ccccc2CN2CCCC2)cc1=O,16
2,CN(C)c1ncccc1CNS(=O)(=O)c1cc(F)ccc1F,-11.5
3,O=C(NCCn1ccnc1)N1CCCN(Cc2cccs2)CC1,-9.01
4,Cn1ccc(C(=O)NCc2ccccc2CN2CCCCC2)cc1=O,-7.11
5,O=C(NCCn1ccnc1)N1CCN(Cc2ccsc2)CC1,9.21
6,CCOc1cccc(C(C)NCc2c(C)nn(C)c2N(C)C)c1 (centres undefined),-8.02
7,Fc1cccc(-n2ccc(CN3CCCC3Cn3cccn3)n2)c1 (centres undefined),-14.3
8,Cc1nnc(NC(=O)CN2CCc3nn(C)c(=O)cc3C2)s1,10.8
9,CCc1n[nH]c(C2CN(C(=O)c3cnc(C)cn3)CCO2)n1 (centres undefined),-10.6
10,Cc1nc(CN(C)C2CCN(CCc3ccccn3)C2)no1 (centres undefined),24.5
11,Cc1cnn(CC2CCCN2CC(=O)Nc2cc(C(C)C)no2)c1 (centres undefined),-7.84
12,CN1CCC/C1=N\S(=O)(=O)c1ccc(NC(=O)c2ccco2)cc1,11.9
13,CN1CCC/C1=N\S(=O)(=O)c1ccc(NC(=O)c2ccc(Cl)s2)cc1,-18.3
14,CCn1cc(NC(=O)NCc2ccc3c(c2)OCO3)cn1,-1.53
15,CCn1cc(NC(=O)NCCc2ccc3c(c2)OCCO3)cn1,-6.54
16,CCN(CC)C(=O)c1ccc(-n2ncc(C#N)c2N)cc1,12.9
17,CCc1nc(CN2CCN(C(=O)CCc3ccccc3)CC2)cs1,3
18,c1cc(CNCC2CNc3ccnn3C2)cc(N2CCCCC2)n1 (centres undefined),25.3
19,c1ccc(Oc2cc(CNCC3CNc4ccnn4C3)ccn2)cc1 (centres undefined),-2.96
20,CCOc1cc(/C=C/c2ncc(C(=O)O)s2)cc(Cl)c1OC,9.41
21,CCOc1ncccc1C(=O)NCCN(CC)C1CC1,0.543

row,Compound,cytotoxicity at 70.5 h [%]
1,O=C(NCc1cccc2cccnc12)N1CCC(n2cncn2)CC1,-1.7
2,CCc1nccn1C1CCCN(C(=O)CCCNc2ncccn2)C1 (centres undefined),-1.35
3,O=C(c1ccn[nH]1)N1CCCC(n2cncn2)C1 (centres undefined),5.61
4,COCCCNC(=O)CN1CCCC1c1c(C)nn(C)c1Cl (centres undefined),27.1
5,O=C(c1cnc(-c2ccco2)s1)N1CCCC1Cn1cccn1 (centres undefined),1.15
6,CC1CCN(S(=O)(=O)NCCCn2cncn2)CC1,-0.69
7,Cc1nc(C)n(CC2CCCN(CCCOc3ccccc3)C2)n1 (centres undefined),-0.0538
8,Cn1cc(C(=O)CC2CCCN2C(=O)c2cncc3ccccc23)cn1 (centres undefined),3.04
9,Cc1nc(-c2ccco2)ccc1C(=O)N1CCCC1Cn1cccn1 (centres undefined),7.82
10,COc1ccc(CCN2CCCC(Cn3nc(C)nc3C)C2)cc1 (centres undefined),-2.31
11,CC(O)CN1CCN(C(=O)c2ccc(Cn3cccc3)cc2)CC1 (centres undefined),-2.78
12,CCn1cnnc1CNC(=O)N(C)Cc1ccc2c(c1)OCCO2,6.83
13,Cc1nc(C)n(CC2CCCN(Cc3nc(C)c(C)o3)C2)n1 (centres undefined),13.2
14,CCC1CN(CCC(=O)N(C)C)CCN1CCOC (centres undefined),-8.66
15,CCC1CN(CC(=O)N2CCC2)CCN1CCOC (centres undefined),-2.85
16,Cc1nc(C)n(CC2CCCN(c3ncnc4ccsc34)C2)n1 (centres undefined),26.2
17,CCn1cnnc1CNC(=O)CCC(=O)c1ccc2c(c1)OCCO2,-9.39
18,Cc1ccc(C(=O)N2CCCC(NC(=O)C(C)C)C2)c(O)c1 (centres undefined),-3.17
19,Cc1ccc(C(=O)N2CCCC(C(=O)N3CCCCC3)C2)c(O)c1 (centres undefined),13.3
20,CC(=O)NC1CCCN(C(=O)c2ccc(Br)cc2O)C1 (centres undefined),-8.57
21,COCCN(CCc1ccccc1)Cc1nc2c(cnn2C)c(=O)[nH]1,-3.4

row,Compound,cytotoxicity at 70.5 h [%]
1,CCN(CCc1ccccc1)Cn1nc(C)c2c(C)onc2c1=O,-1.87
2,O=C(c1cnc(-c2cccs2)s1)N1CCCC(n2cccn2)C1 (centres undefined),-4.26
3,CCN1CCN(C(=O)c2cnn(-c3ccccc3Cl)c2)CC1,-8.2
4,Cc1cccc(-c2[nH]ncc2CNCC2CCN(CC(C)O)CC2)c1 (centres undefined),-4.28
5,Cc1nc(CNC(=O)NCCc2ccc(N(C)C)cc2)cs1,-0.758
6,c1csc(-c2nc(CN3CCOC(Cn4cccn4)C3)co2)c1 (centres undefined),-8.17
7,O=C(c1ccccc1N1CCOCC1)N1CCCC(n2cccn2)C1 (centres undefined),1.3
8,Cc1cnn(CCC(=O)N2CCC(Nc3cccnn3)CC2)c1,18.3
9,CCc1nccn1C1CCCN(C(=O)c2cn3cccnc3n2)C1 (centres undefined),-11.4
10,Cc1nc(CN2CCOC(CNc3cccnn3)C2)cs1 (centres undefined),2.31
11,CCc1ccc(C(=O)O)cc1S(=O)(=O)Nc1ccc(F)c(C#N)c1,6.85
12,CCOc1cccc2c1OCC(C(=O)NS(=O)(=O)c1ccc(C)s1)=C2,-4.35
13,CC(C)c1nccn1C1CCCN(C(=O)c2cccc3c2OCO3)C1 (centres undefined),8.22
14,O=C(Cc1ccc2c(c1)OCCO2)NCCc1nnc2n1CCC2,12.2
15,O=C(NCCN1CCCCCC1=O)c1ccn(-c2ccc(F)cc2)n1,-6.58
16,CCOc1ccc(S(=O)(=O)NC(=O)CCC2CCCO2)cc1 (centres undefined),-10.5
17,Cc1csc(N2CCN(C(=O)CCNc3ncccn3)CC2)n1,-11.3
18,Cc1csc(N2CCN(C(=O)Cc3ccc(C)s3)CC2)n1,3.83
19,Cc1nc(-c2ccccc2)n(CC(=O)NCC(C)C)n1,-3.55
20,Cn1ncc2c1CCCC2NCc1cccc(C(F)(F)F)c1 (centres undefined),-5.81
21,Cc1noc(C(C)C)c1C(=O)NCCCN1CCNCC1,-7.14
